Data published in PubChem BioAssay AID564 (University of Pittsburgh Molecular Library Screening Center, 2006).
Active and inactive are the calls of the source. How the calls were made is not given here.

Target: Dual specificity protein phosphatase 6 (Rattus norvegicus) (UniProt Q64346)
Assay: MKP-3 phosphatase inhibition with catalase present, dose response, biochemical, rat DUSP6, catalase added, probe assessment (AID 564)
Conditions: recombinant MKP-3 phosphatase, fluorescence

Chain of Dual specificity protein phosphatase 6 (Rattus norvegicus) (Q64346 whole entry, looked up): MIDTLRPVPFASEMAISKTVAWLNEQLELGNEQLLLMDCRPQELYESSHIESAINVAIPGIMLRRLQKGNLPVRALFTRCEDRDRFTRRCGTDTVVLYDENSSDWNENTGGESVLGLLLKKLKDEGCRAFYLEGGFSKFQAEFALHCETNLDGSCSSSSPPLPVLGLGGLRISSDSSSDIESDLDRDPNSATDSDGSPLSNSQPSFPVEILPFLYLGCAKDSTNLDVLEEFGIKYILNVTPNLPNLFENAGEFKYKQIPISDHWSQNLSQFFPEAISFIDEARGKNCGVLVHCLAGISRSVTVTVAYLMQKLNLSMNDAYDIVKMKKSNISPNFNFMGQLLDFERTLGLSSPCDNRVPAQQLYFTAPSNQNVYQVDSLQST

O=C1C(C2=C(O)c3ccccc3C2=O)=Nc2ccccc21
IC50: > 50 µM (inactive)
